Source: ChEMBL document CHEMBL1201862, “PubChem BioAssay data set” (2004)
The source made the active and inactive calls.

How the values were obtained:
[1] = molecular target: Voltage-dependent T-type calcium channel subunit alpha-1H (Homo sapiens, UniProt O95180); format: functional;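 further: channel activity triggered by adding a high calcium stimulation buffer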
Mucolipin-3 = molecular target: T1, Mucolipin-3 (Homo sapiens, UniProt Q8TDD5); assay: Dose response cell-based high-throughput screening assay for agonists of the transient receptor potential channel ML3 (TRPML3). [Related pubchem assays: 1526, 1424, 1448 ]; format: functional
T1 sequence (Q8TDD5 whole entry): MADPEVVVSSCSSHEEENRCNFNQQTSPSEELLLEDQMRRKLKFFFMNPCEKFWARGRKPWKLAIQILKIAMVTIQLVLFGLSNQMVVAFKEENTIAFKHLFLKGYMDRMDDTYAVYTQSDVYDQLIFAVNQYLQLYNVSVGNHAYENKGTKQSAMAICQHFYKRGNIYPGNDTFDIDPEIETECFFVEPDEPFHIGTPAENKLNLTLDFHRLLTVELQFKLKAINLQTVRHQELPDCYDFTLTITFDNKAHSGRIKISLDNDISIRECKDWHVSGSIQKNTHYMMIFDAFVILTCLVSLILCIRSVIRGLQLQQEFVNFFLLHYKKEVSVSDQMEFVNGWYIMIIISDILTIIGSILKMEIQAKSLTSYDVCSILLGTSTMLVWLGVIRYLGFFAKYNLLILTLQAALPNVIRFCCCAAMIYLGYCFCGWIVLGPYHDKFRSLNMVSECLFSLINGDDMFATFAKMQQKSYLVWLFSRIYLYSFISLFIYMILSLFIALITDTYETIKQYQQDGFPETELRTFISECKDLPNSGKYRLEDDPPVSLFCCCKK

[2] = molecular target: T2, Polyadenylate-binding protein 1 (Homo sapiens, UniProt P11940); assay: PABP1 MLLE–PAM2 interaction inhibitors, dose response, miRNA deadenylation inhibitor project, biochemical, fluorescence polarization, Cy5-PAM2 peptide, secondary (AID 602260); format: functional; details: read-out: IC50_Mean
[3] = molecular target: T2, Polyadenylate-binding protein 1; assay: PABP1 MLLE–PAM2 binding inhibitor potency, dose response, biochemical, fluorescence polarization, FITC-PAM2 peptide (AID 602259); format: functional; details: read-out: IC50_Mean
Ion channel NompC = Ion channel NompC (Danio rerio, UniProt Q7T1G6); assay: Fluorescence counterscreen assay for TRPML3 agonists: dose response cell-based high-throughput screening assay to identify agonists of the transient receptor potential channel N1 (TRPN1). [Related pubchem assays: 1526, 1424, 1448 ]; format: functional
[4] = A Cell Based Secondary Assay To Explore Cytotoxicity of Compounds that Sensitize Mycobacterium Tuberculosis to Beta-Lactam Antibiotics.; format: functional
[5] = molecular target: Peroxisome proliferator-activated receptor gamma/Nuclear receptor coactivator 1 (Homo sapiens, UniProt P37231); format: functional;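 further: agonist potency as compounds enhance coactivator SRC-1 recruitment to PPARgamma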
[6] = molecular target: Peroxisome proliferator-activated receptor gamma/Nuclear receptor coactivator 2 (Homo sapiens, UniProt P37231); format: functional;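 further: agonist potency for raising coactivator recruitment to the receptor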
[7] = molecular target: Peroxisome proliferator-activated receptor gamma/Nuclear receptor coactivator 3 (Homo sapiens, UniProt P37231); format: functional;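 further: agonist potency for raising coactivator recruitment to the receptor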
[8] = HEp-2 cell cytotoxicity, dose response, cytotoxicity control for RSV inhibitor project, HTS (AID 2410); format: functional; details: human respiratory syncytial virus
[9] = molecular target: T3, NACHT, LRR and PYD domains-containing protein 1 (Homo sapiens, UniProt Q9C000); assay: NALP1 inhibitors in yeast, dose response, luminescent (AID 488860); format: functional
T3 sequence (Q9C000 whole entry): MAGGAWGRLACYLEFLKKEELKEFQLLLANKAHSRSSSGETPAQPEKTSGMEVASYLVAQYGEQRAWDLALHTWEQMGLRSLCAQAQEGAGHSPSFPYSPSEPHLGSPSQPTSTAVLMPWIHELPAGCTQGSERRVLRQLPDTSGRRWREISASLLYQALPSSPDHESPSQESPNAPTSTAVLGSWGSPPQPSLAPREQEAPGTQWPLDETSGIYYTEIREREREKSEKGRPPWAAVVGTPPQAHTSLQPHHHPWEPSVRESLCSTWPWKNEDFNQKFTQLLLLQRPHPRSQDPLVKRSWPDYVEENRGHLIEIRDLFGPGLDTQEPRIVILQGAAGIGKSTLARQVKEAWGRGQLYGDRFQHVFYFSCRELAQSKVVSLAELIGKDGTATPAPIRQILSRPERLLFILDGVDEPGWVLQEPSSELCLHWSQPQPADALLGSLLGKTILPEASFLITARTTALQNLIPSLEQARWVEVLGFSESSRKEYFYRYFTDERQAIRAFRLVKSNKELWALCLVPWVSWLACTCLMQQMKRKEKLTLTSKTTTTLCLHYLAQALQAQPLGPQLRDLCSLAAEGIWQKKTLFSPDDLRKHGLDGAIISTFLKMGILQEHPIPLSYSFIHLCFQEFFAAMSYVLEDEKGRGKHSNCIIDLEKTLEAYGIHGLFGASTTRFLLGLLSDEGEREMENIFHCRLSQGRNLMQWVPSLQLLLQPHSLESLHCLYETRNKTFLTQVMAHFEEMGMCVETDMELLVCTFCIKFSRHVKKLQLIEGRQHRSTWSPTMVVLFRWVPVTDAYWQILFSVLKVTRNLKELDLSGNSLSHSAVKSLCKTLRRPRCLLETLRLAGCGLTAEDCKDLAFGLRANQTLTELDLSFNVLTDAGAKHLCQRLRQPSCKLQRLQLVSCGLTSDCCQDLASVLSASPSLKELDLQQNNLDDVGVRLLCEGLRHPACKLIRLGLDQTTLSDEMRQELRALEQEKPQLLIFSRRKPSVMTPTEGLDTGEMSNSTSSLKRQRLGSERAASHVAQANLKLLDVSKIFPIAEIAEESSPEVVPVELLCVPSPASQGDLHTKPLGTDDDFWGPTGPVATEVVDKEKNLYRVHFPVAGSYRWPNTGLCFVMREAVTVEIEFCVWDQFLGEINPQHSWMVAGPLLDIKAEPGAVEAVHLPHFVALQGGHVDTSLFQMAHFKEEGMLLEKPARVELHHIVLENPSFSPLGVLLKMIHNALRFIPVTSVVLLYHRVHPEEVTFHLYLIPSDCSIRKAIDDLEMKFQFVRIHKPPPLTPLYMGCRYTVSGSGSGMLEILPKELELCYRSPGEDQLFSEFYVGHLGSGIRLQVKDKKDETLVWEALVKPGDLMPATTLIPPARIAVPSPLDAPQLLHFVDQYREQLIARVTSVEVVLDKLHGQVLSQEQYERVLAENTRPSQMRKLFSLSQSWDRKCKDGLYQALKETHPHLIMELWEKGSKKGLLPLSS

Saccharomyces cerevisiae = assay: NALP1 inhibitor project selectivity study, Caspase-1/ASC signal blockade IC50 in S. cerevisiae (AID 488863); format: functional, organism-based
[10] = cytotoxicity toward NIH3T3 fibroblasts, dose response, counter-screen, cell-based, ATP luminescence, mouse fibroblasts (AID 2010); format: functional;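 further: cells exposed to compound for about 90 hours before reading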
[11] = inhibitors of intracellular T. cruzi replication, confirmation, NIH3T3 host cells, beta-gal luminescence (AID 2044); format: functional, cell-based;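 further: intracellular parasites grown in NIH/3T3 mouse fibroblasts as host cells; luminescent beta-galactosidase reporter signal from transgenic T. cruzi replicating inside host cells; inhibitors lower the luminescence signal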
[12] = molecular target: Glyceraldehyde-3-phosphate dehydrogenase (Homo sapiens, UniProt P04406)
[13] = molecular target: G-protein coupled receptor 55 (Homo sapiens, UniProt Q9Y2T6); assay: GPR55 agonists via beta-arrestin recruitment, primary screen, imaging, U2OS cells, beta-arrestin-GFP redistribution (AID 1961); format: functional
[14] = inhibitors of firefly luciferase expression or activity, dose response, H4 neuroglioma cells, luminescence (AID 1990); format: functional, cell-based
BJ [15] = assay: cytotoxicity toward BJ-TERT fibroblasts, dose response, cell-based, RAS-independent, luminescence (AID 1933); format: functional; details: Homo sapiens
Vero [16] = assay: cells; format: functional, cell-based; details: Chlorocebus sabaeus
BJ [17] = assay: cytotoxicity toward BJ-TERT-LT-ST fibroblasts, dose response, cell-based, RAS-independent, luminescence (AID 1935); format: functional; details: Homo sapiens;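 further: BJ fibroblasts immortalized with TERT plus LT and ST oncogenes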
[18] = cytotoxicity toward DRD oncogenic fibroblasts, dose response, cell-based, non-viral oncogenic, luminescence (AID 1934); format: functional; details: Homo sapiens
[19] = Luminescence Cell-Based Dose Response HTS to Identify Inhibitors of 5'UTR Stem-Loop Driven Prion Protein mRNA Translation in H4 Neuroglioblastoma Cells. [Related pubchem assays: 1827 (Project Summary), 1813 (Primary HTS)]; format: functional
BJ [20] = assay: cells; format: functional, cell-based; details: Homo sapiens
Vero [21] = assay: cells; format: functional; details: Chlorocebus sabaeus
[22] = inhibitors of SNCA 5'UTR-driven reporter translation, confirmation, H4 neuroglioma cells, luminescence (AID 1988); format: functional, cell-based
fMet-Leu-Phe receptor = molecular target: T4, fMet-Leu-Phe receptor (Homo sapiens, UniProt P21462); assay: FPR ligands, dose response (AID 519); format: functional
T4 sequence (P21462 whole entry): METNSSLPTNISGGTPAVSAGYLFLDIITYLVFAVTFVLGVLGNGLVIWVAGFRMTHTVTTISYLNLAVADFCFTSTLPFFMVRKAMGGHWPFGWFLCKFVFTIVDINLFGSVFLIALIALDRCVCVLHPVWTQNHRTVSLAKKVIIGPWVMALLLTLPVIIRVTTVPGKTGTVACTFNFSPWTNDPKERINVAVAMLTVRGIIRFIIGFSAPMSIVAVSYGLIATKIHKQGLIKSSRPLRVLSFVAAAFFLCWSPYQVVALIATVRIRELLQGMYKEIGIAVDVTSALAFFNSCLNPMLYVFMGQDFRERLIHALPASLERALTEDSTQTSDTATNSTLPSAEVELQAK

Cytochrome P450 1A2 = molecular target: T5, Cytochrome P450 1A2 (Homo sapiens, UniProt P05177);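 further: PubChem cytochrome P450 panel assay, CYP1A2 panel member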
T5 sequence (P05177 whole entry): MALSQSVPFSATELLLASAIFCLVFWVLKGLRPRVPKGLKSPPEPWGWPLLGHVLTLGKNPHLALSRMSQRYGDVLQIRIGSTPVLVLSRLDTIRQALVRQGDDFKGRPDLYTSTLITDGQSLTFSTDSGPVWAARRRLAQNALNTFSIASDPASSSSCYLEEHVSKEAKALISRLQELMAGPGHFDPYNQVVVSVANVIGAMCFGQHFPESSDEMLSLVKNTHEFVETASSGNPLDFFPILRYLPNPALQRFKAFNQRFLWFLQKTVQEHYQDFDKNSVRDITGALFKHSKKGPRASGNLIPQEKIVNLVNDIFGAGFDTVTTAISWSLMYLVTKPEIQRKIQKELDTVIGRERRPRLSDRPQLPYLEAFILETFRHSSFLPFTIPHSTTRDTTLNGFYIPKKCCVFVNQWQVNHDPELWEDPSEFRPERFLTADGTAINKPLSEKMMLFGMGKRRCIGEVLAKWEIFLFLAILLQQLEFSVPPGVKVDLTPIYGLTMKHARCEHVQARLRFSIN

Cytochrome P450 2D6 = Cytochrome P450 2D6 (Homo sapiens, UniProt P10635);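 further: CYP2D6 member of a cytochrome P450 panel assay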
Chain of Cytochrome P450 2D6 (P10635 whole entry): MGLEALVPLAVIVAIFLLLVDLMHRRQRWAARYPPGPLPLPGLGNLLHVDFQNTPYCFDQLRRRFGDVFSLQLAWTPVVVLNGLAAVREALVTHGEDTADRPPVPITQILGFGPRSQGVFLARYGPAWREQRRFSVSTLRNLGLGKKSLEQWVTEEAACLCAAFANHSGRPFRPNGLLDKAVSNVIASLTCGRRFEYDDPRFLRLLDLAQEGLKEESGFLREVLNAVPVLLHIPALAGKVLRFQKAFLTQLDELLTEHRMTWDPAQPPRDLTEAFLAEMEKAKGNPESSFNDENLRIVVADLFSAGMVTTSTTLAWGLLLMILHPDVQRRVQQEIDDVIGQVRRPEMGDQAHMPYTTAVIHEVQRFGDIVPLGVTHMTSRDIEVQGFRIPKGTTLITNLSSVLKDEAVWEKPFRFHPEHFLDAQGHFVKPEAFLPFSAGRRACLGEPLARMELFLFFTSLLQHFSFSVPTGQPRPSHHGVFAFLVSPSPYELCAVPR

Chain of Voltage-dependent T-type calcium channel subunit alpha-1H (O95180 whole entry): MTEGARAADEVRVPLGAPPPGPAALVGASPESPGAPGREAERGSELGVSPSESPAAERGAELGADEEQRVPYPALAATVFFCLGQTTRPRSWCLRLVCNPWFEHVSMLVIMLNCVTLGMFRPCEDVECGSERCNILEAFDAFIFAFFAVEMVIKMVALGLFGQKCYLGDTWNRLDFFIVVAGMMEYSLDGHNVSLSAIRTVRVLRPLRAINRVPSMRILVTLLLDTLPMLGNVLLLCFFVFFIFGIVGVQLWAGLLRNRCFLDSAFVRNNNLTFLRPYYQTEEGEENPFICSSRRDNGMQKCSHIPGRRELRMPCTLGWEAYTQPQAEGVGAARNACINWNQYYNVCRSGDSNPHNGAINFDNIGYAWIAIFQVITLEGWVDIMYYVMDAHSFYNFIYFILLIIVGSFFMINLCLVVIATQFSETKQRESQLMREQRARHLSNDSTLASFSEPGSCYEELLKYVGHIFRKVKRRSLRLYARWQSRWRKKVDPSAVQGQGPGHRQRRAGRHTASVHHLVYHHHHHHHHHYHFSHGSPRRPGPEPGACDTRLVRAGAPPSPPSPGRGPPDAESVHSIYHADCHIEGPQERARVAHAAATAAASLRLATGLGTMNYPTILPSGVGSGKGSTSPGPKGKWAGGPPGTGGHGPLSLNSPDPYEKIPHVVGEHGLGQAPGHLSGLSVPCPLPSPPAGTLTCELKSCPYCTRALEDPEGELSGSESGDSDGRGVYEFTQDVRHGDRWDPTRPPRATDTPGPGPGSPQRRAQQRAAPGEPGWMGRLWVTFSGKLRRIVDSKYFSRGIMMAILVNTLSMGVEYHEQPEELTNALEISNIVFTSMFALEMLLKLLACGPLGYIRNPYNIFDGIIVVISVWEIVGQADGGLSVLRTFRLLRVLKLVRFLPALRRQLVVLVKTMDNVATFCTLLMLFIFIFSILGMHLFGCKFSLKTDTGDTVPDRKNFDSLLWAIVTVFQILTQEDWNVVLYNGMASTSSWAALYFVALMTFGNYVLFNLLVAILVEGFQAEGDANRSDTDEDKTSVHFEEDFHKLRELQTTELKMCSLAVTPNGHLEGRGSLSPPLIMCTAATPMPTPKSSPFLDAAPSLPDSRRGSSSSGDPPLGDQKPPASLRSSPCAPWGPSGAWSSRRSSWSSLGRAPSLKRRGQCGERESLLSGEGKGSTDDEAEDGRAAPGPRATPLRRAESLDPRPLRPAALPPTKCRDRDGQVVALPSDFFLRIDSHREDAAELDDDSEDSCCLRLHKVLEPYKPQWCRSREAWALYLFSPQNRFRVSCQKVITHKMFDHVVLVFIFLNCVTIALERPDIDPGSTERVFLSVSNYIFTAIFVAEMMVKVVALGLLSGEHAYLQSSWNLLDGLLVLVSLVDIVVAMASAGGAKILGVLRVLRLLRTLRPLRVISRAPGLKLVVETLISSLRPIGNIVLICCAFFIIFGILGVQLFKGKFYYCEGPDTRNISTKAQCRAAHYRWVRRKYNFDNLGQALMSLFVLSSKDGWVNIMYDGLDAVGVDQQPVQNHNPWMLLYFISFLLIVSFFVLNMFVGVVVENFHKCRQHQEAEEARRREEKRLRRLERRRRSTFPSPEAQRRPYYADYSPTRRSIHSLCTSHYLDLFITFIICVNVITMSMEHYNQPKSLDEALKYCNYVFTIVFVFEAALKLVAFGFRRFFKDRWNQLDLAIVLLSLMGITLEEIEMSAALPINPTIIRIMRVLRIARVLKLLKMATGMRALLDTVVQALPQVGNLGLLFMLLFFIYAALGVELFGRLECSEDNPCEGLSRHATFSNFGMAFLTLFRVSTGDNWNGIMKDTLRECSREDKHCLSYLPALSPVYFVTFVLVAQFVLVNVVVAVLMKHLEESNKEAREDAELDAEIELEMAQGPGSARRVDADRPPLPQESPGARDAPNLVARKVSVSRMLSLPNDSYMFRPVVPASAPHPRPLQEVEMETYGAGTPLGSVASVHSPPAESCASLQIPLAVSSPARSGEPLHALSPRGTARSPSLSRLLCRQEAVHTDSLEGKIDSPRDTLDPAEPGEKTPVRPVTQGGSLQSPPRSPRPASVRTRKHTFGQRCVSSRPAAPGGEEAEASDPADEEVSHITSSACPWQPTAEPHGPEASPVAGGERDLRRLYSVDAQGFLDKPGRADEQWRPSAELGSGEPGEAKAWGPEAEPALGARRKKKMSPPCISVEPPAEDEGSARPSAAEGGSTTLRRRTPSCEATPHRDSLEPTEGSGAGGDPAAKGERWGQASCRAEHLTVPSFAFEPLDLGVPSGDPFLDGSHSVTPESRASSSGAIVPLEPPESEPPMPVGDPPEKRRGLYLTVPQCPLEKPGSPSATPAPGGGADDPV
Chain of Peroxisome proliferator-activated receptor gamma/Nuclear receptor coactivator 1 (P37231 whole entry): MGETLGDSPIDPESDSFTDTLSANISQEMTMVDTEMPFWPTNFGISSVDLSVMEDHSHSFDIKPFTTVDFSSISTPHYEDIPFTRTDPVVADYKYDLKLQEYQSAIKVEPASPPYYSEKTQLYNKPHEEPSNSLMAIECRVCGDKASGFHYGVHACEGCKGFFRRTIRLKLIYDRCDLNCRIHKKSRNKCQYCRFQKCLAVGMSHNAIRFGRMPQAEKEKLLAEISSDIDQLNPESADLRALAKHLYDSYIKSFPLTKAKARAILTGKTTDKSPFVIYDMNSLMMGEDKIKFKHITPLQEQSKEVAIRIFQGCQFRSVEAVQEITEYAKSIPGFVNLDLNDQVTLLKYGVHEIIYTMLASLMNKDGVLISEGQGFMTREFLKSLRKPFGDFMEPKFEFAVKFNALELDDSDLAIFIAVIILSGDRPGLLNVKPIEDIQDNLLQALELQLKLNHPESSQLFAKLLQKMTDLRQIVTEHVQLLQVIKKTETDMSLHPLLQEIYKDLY
Chain of Peroxisome proliferator-activated receptor gamma/Nuclear receptor coactivator 1 (Q15788 whole entry, further chain): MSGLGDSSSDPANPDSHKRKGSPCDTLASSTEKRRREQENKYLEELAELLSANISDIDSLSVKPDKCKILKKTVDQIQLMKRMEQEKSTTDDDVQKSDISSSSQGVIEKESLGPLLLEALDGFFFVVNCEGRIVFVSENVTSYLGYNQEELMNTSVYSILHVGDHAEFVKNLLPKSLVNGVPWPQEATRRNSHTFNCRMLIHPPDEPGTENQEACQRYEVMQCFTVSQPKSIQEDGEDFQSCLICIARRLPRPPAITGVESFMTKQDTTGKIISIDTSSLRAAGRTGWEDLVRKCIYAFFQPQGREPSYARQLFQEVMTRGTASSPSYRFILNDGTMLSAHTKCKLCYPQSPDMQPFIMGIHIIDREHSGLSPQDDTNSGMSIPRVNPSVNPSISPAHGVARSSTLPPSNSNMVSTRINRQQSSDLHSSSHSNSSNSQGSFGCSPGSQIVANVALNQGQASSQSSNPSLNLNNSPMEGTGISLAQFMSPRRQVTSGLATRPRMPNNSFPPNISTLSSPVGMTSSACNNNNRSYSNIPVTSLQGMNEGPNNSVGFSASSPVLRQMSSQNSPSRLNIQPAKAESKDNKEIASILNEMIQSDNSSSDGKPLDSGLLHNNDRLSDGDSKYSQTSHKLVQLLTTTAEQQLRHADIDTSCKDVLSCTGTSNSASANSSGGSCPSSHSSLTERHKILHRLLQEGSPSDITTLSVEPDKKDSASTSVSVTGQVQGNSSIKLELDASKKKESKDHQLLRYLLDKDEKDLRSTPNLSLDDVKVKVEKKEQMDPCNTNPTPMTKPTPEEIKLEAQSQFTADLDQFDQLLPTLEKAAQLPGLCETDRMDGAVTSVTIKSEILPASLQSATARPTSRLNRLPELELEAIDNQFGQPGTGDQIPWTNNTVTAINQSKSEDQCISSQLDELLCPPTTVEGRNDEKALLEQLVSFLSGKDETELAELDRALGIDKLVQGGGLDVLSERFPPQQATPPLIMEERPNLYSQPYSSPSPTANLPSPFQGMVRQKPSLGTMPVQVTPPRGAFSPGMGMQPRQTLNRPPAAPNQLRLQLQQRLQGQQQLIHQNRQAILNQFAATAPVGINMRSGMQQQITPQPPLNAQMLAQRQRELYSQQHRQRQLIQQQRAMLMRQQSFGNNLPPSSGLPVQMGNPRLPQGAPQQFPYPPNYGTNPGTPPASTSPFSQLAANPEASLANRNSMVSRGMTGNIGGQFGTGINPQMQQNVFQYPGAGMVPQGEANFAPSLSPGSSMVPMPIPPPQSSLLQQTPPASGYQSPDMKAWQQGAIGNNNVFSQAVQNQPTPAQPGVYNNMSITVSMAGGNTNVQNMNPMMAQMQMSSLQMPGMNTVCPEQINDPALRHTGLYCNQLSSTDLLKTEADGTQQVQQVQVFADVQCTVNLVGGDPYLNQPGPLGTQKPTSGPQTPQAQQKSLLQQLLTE
Chain of G-protein coupled receptor 55 (Q9Y2T6 whole entry): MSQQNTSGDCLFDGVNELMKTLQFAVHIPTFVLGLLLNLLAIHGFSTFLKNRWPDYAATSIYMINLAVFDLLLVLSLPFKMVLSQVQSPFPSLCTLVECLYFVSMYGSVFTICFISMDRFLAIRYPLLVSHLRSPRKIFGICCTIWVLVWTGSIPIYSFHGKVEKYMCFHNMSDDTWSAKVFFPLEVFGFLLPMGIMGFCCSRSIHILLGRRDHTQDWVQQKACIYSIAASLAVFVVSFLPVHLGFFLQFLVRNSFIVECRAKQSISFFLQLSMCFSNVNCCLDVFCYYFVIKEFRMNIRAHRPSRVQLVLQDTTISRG

Compound: Cc1ccc(CNC(=O)C(=O)NCC2OCCN2S(=O)(=O)c2ccc3c(c2)OCCO3)cc1 (stereo not drawn)
- EC50 [1]: 4.92 µM (active)

Compound: CCOC(=O)CSc1nc2c(sc(=S)n2-c2ccccc2OC)c(=O)n1Cc1ccco1
- EC50 (Mucolipin-3): 0.37 µM (active)
- IC50 [2]: > 66 µM (inactive)
- IC50 [3]: > 66 µM (inactive)
- EC50 (Ion channel NompC): > 29.9 µM (not active)

Compound: Cc1nc(SCC(=O)Nc2ccc(F)cc2)c(C#N)c(C)c1CC(=O)c1ccc(Br)cc1
- CC50 [4]: 9.4 µM (active)
- EC50 [5]: 13.8 µM (not active)
- EC50 [6]: 9.89 µM (active)
- EC50 [7]: 24.8 µM (not active)

Compound: O=C(NC1=NCCS1)c1cc(-c2ccc(-c3ccccc3)cc2)nc2ccccc12
- CC50 [8]: 21.9 µM (active)
- IC50 (cells): 21.7 µM (active)

Compound: Cn1cccc1Cc1nnc(SCC(=O)Nc2cccc(Cl)c2)n1-c1ccc(F)cc1
- EC50 [1]: 1.24 µM (active)

Compound: CCc1ccc(C(=O)NCc2ccc(Cl)cc2Cl)cc1
- IC50 [9]: 33.9 µM (active)
- IC50 (Saccharomyces cerevisiae): 61 µM (active)

Compound: Cc1ccc(C(=O)/C=C\C(=O)c2ccc(C)cc2)cc1
- IC50 [9]: 8.75 µM (active)
- EC50 [10]: > 60 µM (not active)
- IC50 (Saccharomyces cerevisiae): 6.51 µM (active)
- EC50 [11]: 1.97 µM (active)

Compound: O=C(O)c1cccc(N2C(=O)c3ccc4c5c(ccc(c35)C2=O)CC4)c1
- IC50 [12]: > 100 µM (not active)

Compound: CC(=O)Nc1cccc(Oc2ncnc3scc(-c4ccc(C(C)C)cc4)c23)c1
- EC50 [13]: 6.01 µM (active)
- EC50 [14]: 21.7 µM (active)
- EC50 (BJ [15]): 42.6 µM (active)
- IC50 (Vero [16]): 17.7 µM (active)
- EC50 (BJ [17]): > 150 µM (inconclusive)
- EC50 [18]: 31.3 µM (active)
- EC50 [19]: > 120 µM (not active)
- EC50 (BJ [20]): 61.5 µM (active)
- CC50 (Vero [21]): > 25 µM (active)
- EC50 [22]: 18.2 µM (active)

Compound: Cc1nn2c(O)c3c(nc2c1-c1cccc2ccccc12)CCC3
- EC50 [13]: 8.52 µM (active)
- Ki (fMet-Leu-Phe receptor): 53.7 µM (inactive)
- AC50 (Cytochrome P450 1A2): 25.1 µM (inconclusive)
- AC50 (Cytochrome P450 2D6): 35.5 µM (inconclusive)

Compound: O=S(=O)(C=C(c1ccccc1)c1ccccc1)c1ccccc1
- EC50 (Mucolipin-3): 2.82 µM (active)
- AC50 (Cytochrome P450 1A2): 28.2 µM (inconclusive)
- EC50 (Ion channel NompC): > 29.9 µM (not active)

Compound: Cc1ccc(N2C(=O)C3CCC(c4ccccc4)CC3C2=O)cc1 (stereo not drawn)
- EC50 [5]: > 79.4 µM (not active)
- EC50 [6]: > 79.4 µM (not active)
- EC50 [7]: > 79.4 µM (not active)

Compound: CCCn1c(NCc2cc(OC)ccc2OC)nc2ccccc21
- EC50 [1]: 5.97 µM (active)

Compound: Cc1sc(-n2c(C)cc(/C=N/n3cnnc3)c2C)c(C#N)c1C
- EC50 [5]: > 79.4 µM (not active)
- EC50 [6]: > 79.4 µM (not active)
- EC50 [7]: > 79.4 µM (not active)
